Reference: PubChem BioAssay AID248 (DTP/NCI, 2004)
“And” between values parts separate entries of the source, which are not always exact repeats. Identical values can stand only once. Toxic doses and inconclusive results are not listed. Rule as the data show it: active = T/C of 150% or more; inactive = T/C below 125%.

System: L1210 leukemia ip in BDF1 mice, survival T/C
Experiment: NCI In Vivo Anticancer Drug Screen. Data for tumor model L1210 Leukemia (intraperitoneal) in B6D2F1 (BDF1) mice
Conditions: endpoint: mean survival time, higher = longer survival
Procedure, shortened: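 Each compound was tested against a transplantable tumor grown in mice. The endpoint was survival, with treated animals benchmarked against vehicle controls as a simple ratio.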

[1] = dose: 100.0 mg/kg/injection, schedule: Q01DX001 (ip), vehicle: Klucel (hydroxypropylcellulose) (HPC)
[2] = dose: 100.0 mg/kg/injection, schedule: Q04DX003 (ip), vehicle: Klucel (hydroxypropylcellulose) (HPC)
[3] = dose: 200.0 mg/kg/injection, schedule: Q01DX001 (ip), vehicle: Klucel (hydroxypropylcellulose) (HPC)
[4] = dose: 200.0 mg/kg/injection, schedule: Q04DX003 (ip), vehicle: Klucel (hydroxypropylcellulose) (HPC)
[5] = dose: 400.0 mg/kg/injection, schedule: Q01DX001 (ip), vehicle: Klucel (hydroxypropylcellulose) (HPC)
[6] = dose: 400.0 mg/kg/injection, schedule: Q04DX003 (ip), vehicle: Klucel (hydroxypropylcellulose) (HPC)
[7] = dose: 50.0 mg/kg/injection, schedule: Q01DX009 (ip), vehicle: Klucel (hydroxypropylcellulose) (HPC)
[8] = dose: 100.0 mg/kg/injection, schedule: Q01DX001 (ip), vehicle: saline
[9] = dose: 200.0 mg/kg/injection, schedule: Q01DX001 (ip), vehicle: saline
[10] = dose: 100.0 mg/kg/injection, schedule: Q01DX009 (ip), vehicle: Klucel (hydroxypropylcellulose) (HPC)
[11] = dose: 200.0 mg/kg/injection, schedule: Q01DX009 (ip), vehicle: Klucel (hydroxypropylcellulose) (HPC)
[12] = dose: 400.0 mg/kg/injection, schedule: Q01DX009 (ip), vehicle: Klucel (hydroxypropylcellulose) (HPC)
[13] = dose: 100.0 mg/kg/injection, schedule: Q01DX001 (ip), vehicle: carboxymethylcellulose (CMC)
[14] = dose: 200.0 mg/kg/injection, schedule: Q01DX001 (ip), vehicle: carboxymethylcellulose (CMC)
[15] = dose: 400.0 mg/kg/injection, schedule: Q01DX001 (ip), vehicle: carboxymethylcellulose (CMC)
[16] = dose: 100.0 mg/kg/injection, schedule: Q01DX001 (ip), vehicle: saline with Tween-80
[17] = dose: 200.0 mg/kg/injection, schedule: Q01DX001 (ip), vehicle: saline with Tween-80
[18] = dose: 400.0 mg/kg/injection, schedule: Q01DX001 (ip), vehicle: saline with Tween-80

Measured: T/C

O=S(=O)(Cc1ccccc1)CC(Cl)c1ccccc1 (stereo unspecified)
inactive: [1] 98 % of control | [2] 97 % of control | [3] 98 % of control | [4] 101 % of control | [5] 104 % of control | [6] 92 % of control

Clc1c(CI)ccc(CI)c1Cl
inactive: dose: 6.25 mg/kg/injection, schedule: Q01DX009 (ip), vehicle: saline with Tween-80 100 % of control | dose: 12.5 mg/kg/injection, schedule: Q01DX009 (ip), vehicle: saline with Tween-80 92 % of control | dose: 25.0 mg/kg/injection, schedule: Q01DX009 (ip), vehicle: Klucel (hydroxypropylcellulose) (HPC) 93 % of control | dose: 25.0 mg/kg/injection, schedule: Q01DX009 (ip), vehicle: saline with Tween-80 92 % of control | [7] 108 % of control | dose: 50.0 mg/kg/injection, schedule: Q01DX009 (ip), vehicle: saline with Tween-80 89 % of control | [2] 89 % of control

O=P(O)(O)OP(=O)(O)OP(=O)(O)OCC1OC(N2C=NC3C4NC=CN4CNC32)C(O)C1O (stereo unspecified)
inactive: dose: 3.13 mg/kg/injection, schedule: Q03HX024 (ip), vehicle: saline 97 % of control | dose: 6.25 mg/kg/injection, schedule: Q03HX024 (ip), vehicle: saline 93 % of control | dose: 7.5 mg/kg/injection, schedule: Q03HX024 (ip), vehicle: saline 95 % of control | dose: 15.0 mg/kg/injection, schedule: Q03HX024 (ip), vehicle: saline 93 % of control

OCCc1cccc(O)c1
inactive: dose: 50.0 mg/kg/injection, schedule: Q01DX001 (ip), vehicle: saline 102 % of control | [8] 93 % of control | [9] 86 % of control | dose: 400.0 mg/kg/injection, schedule: Q01DX001 (ip), vehicle: saline 100 % of control

CCCCCCCCCCCCCCCCCCNC(=O)Nc1cccc(NC(C)=O)c1
inactive: [10] 91 % of control | [11] 88 % of control | [12] 98 % of control

Cc1cccc(CN2C(=O)c3ccccc3C2=O)c1
inactive: [1] 100 % of control | [3] 103 % of control | [5] 102 % of control

NC(Cc1cc(I)c(O)c(I)c1)C(=O)O (stereo unspecified)
inactive: dose: 12.5 mg/kg/injection, schedule: Q01DX009 (ip), vehicle: carboxymethylcellulose (CMC) 101 % of control | dose: 25.0 mg/kg/injection, schedule: Q01DX009 (ip), vehicle: carboxymethylcellulose (CMC) 99 % of control | dose: 25.0 mg/kg/injection, schedule: Q01DX009 (ip), vehicle: saline 92 % of control | dose: 25.0 mg/kg/injection, schedule: Q04DX003 (ip), vehicle: carboxymethylcellulose (CMC) 101 % of control | dose: 50.0 mg/kg/injection, schedule: Q01DX009 (ip), vehicle: carboxymethylcellulose (CMC) 90 % of control | dose: 50.0 mg/kg/injection, schedule: Q01DX009 (ip), vehicle: saline 112 % of control | dose: 50.0 mg/kg/injection, schedule: Q04DX003 (ip), vehicle: carboxymethylcellulose (CMC) 100 % of control | dose: 100.0 mg/kg/injection, schedule: Q01DX009 (ip), vehicle: carboxymethylcellulose (CMC) 99 % of control | dose: 100.0 mg/kg/injection, schedule: Q01DX009 (ip), vehicle: saline 108 % of control | dose: 100.0 mg/kg/injection, schedule: Q04DX003 (ip), vehicle: carboxymethylcellulose (CMC) 96 % of control | dose: 200.0 mg/kg/injection, schedule: Q01DX009 (ip), vehicle: carboxymethylcellulose (CMC) 91 % of control | dose: 200.0 mg/kg/injection, schedule: Q01DX009 (ip), vehicle: saline 108 % of control | dose: 200.0 mg/kg/injection, schedule: Q04DX003 (ip), vehicle: carboxymethylcellulose (CMC) 92 % of control | dose: 400.0 mg/kg/injection, schedule: Q01DX009 (ip), vehicle: saline 95 % of control | dose: 400.0 mg/kg/injection, schedule: Q04DX003 (ip), vehicle: carboxymethylcellulose (CMC) 100 % of control

COC1OC2COC(C)(C)OC2C1OS(=O)(=O)c1ccc(C)cc1 (stereo unspecified)
inactive: [13] 104 % of control | [14] 96 % of control | [15] 107 % of control

OCCC#CCCCOC1CCCCO1 (stereo unspecified)
inactive: dose: 100.0 mg/kg/injection, schedule: Q04DX002 (ip), vehicle: Klucel (hydroxypropylcellulose) (HPC) 105 % of control | dose: 200.0 mg/kg/injection, schedule: Q04DX002 (ip), vehicle: Klucel (hydroxypropylcellulose) (HPC) 90 % of control | dose: 400.0 mg/kg/injection, schedule: Q04DX002 (ip), vehicle: Klucel (hydroxypropylcellulose) (HPC) 93 % of control

Nc1ccc(C(=O)Nc2ccc(Nc3ccncc3)cc2)cc1
inactive: [10] 112 % of control | [2] 108 % of control | [11] 106 % of control | [4] 103 % of control | [12] 103 % of control | [6] 106 % of control

O=C1C(=O)c2ccccc2C(O)=C1c1ccccc1
inactive: dose: 50.0 mg/kg/injection, schedule: Q01DX001 (ip), vehicle: carboxymethylcellulose (CMC) 114 % of control

Nc1nc(N)c2cc(CNc3ccc(C(=O)NC(C(=O)O)C(=O)O)cc3)ccc2n1
active: dose: 5.0 mg/kg/injection, schedule: Q01DX001 (ip), vehicle: carboxymethylcellulose (CMC) 157 % of control and 173 % of control
inactive: dose: 0.06 mg/kg/injection, schedule: Q01DX001 (ip), vehicle: saline 122 % of control | dose: 0.06 mg/kg/injection, schedule: Q01DX015 (ip), vehicle: carboxymethylcellulose (CMC) 123 % of control | dose: 0.25 mg/kg/injection, schedule: Q01DX015 (ip), vehicle: carboxymethylcellulose (CMC) 105 % of control | dose: 11.25 mg/kg/injection, schedule: Q01DX001 (ip), vehicle: carboxymethylcellulose (CMC) 91 % of control | dose: 20.0 mg/kg/injection, schedule: Q01DX001 (ip), vehicle: carboxymethylcellulose (CMC) 89 % of control

O=COCC1CCC(NC(=O)N(CCCl)N=O)CC1 (stereo unspecified)
inactive: dose: 2.6 mg/kg/injection, schedule: Q01DX001 (ip), vehicle: Klucel (hydroxypropylcellulose) (HPC) 103 % of control | dose: 4.0 mg/kg/injection, schedule: Q01DX001 (ip), vehicle: Klucel (hydroxypropylcellulose) (HPC) 111 % of control | dose: 6.0 mg/kg/injection, schedule: Q01DX001 (ip), vehicle: Klucel (hydroxypropylcellulose) (HPC) 123 % of control
active: dose: 9.0 mg/kg/injection, schedule: Q01DX001 (ip), vehicle: Klucel (hydroxypropylcellulose) (HPC) 227 % of control | dose: 12.0 mg/kg/injection, schedule: Q01DX001 (ip), vehicle: Klucel (hydroxypropylcellulose) (HPC) 293 % of control and 319 % of control | dose: 15.0 mg/kg/injection, schedule: Q01DX001 (ip), vehicle: Klucel (hydroxypropylcellulose) (HPC) 273 % of control | dose: 18.0 mg/kg/injection, schedule: Q01DX001 (ip), vehicle: Klucel (hydroxypropylcellulose) (HPC) 328 % of control | dose: 26.0 mg/kg/injection, schedule: Q01DX001 (ip), vehicle: Klucel (hydroxypropylcellulose) (HPC) 280 % of control

CC(=O)Nc1cccc(Br)c1
inactive: [7] 101 % of control | [10] 106 % of control and 90 % of control | [11] 95 % of control and 102 % of control

COc1ccc(/C=C\C(=O)NCCCCNC(=O)/C=C/c2ccc(OC)cc2)cc1
inactive: [8] 101 % of control | [9] 88 % of control

O=C1c2ccccc2-c2cc(Br)cc(Br)c21
inactive: [13] 93 % of control | [14] 98 % of control | [15] 98 % of control

Cc1ccc(S(=O)(=O)N(CCCc2c(Cl)nc(N)nc2Cc2ccccc2)c2ccccc2)cc1
inactive: dose: 100.0 mg/kg/injection, schedule: Q04DX003 (ip), vehicle: gum acacia 97 % of control | dose: 200.0 mg/kg/injection, schedule: Q04DX003 (ip), vehicle: gum acacia 92 % of control | dose: 400.0 mg/kg/injection, schedule: Q04DX003 (ip), vehicle: gum acacia 94 % of control

O=C1c2cscc2C(O)(c2ccccc2)c2c(Cl)sc(Cl)c21 (stereo unspecified)
inactive: [16] 88 % of control | [17] 88 % of control | [18] 88 % of control

CC(=O)Nc1c(Cl)cc(Cl)cc1Cl
inactive: [16] 109 % of control | [17] 93 % of control | [18] 95 % of control
